Measurements taken from patent US12454551B2, “Peptides as inhibitors of fibrotic matrix accumulation” (Max-Planck-Gesellschaft zur Förderung der Wissenschaften …, priority 2019, dated 2025).
Where a name gives a salt, the structure may show the parent alone. Residues, ends and D or L forms follow the SMILES beside them. No end group written: not given here.

Tests used:
[1] = system: CCl4 induced liver fibrosis in mice; experiment: CCl4 induced liver fibrosis in mice (collagen accumulation in the liver); format: in vivo; settings: for collagen accumulation in the liver (marker of matrix accumulation): mice, CCl4 for 6 weeks, peptide 25 mg/kg/mouse/day intraperitoneal in NaCl 0.9% from day 32 for 10 days, vs CCl4-treated mice, FIG. 1 and 2
Method: FIG. 1 Prevention of fibrosis progression by proline-containing cyclic and amidated linear peptides. Mice were injected for 6 weeks with CCl4 in order to induce liver fibrosis. Starting on day 32 the mice received daily intraperitoneal injections of 25 mg/kg/mouse/day of the peptides in 0.9% NaCl for a total of 10 days. CCl4-treated mice also received NaCl 0.9%. The healthy control group (CT) only received 0.9% NaCl. N=4/10/[…]/8/11/7 in two experiments. The following peptides were tested on CCl4-treated mice: cyclic Pro-Gly-Leu-Gln-Gly-Glu (Cyclic PGLQGE; SEQ ID NO: 6), and compared to two controls: cyclic Pro-Gly-Leu-Asn-Gly-Glu (Cyclic CT1+P: cyclic PGLNGE; SEQ ID NO: 11) and cyclic Pro-Gly-Leu-Hyp-Gly-Glu (Cyclic CT2+P: cyclic PGLOGE; SEQ ID NO: 16). Linear Gly-Leu-Gln-Gly-Glu-NH2 (Linear GLQGE-NH2; SEQ ID NO: 4) was also tested and compared to two controls: linear Gly-Leu-Asn-Gly-Glu-NH2 (Linear CT1—NH2: linear GLNGE-NH2; SEQ ID NO: 9) and linear Gly-Leu-Hyp-Gly-Glu-NH2 (Linear CT2—NH2: linear GLOGE-NH2; SEQ ID NO: 14). * p<0.05. Evaluated by t-test. Data presented as mean+SEM.
FIG. 2 Prevention of fibrosis progression by cyclic peptides and acetylated linear peptides. Mice were injected for 6 weeks with CCl4 in order to induce liver fibrosis. Starting on day 32 the mice received daily intraperitoneal injections of 25 mg/kg/mouse/day of the peptides in 0.9% NaCl for a total of 10 days. CCl4-treated mice also received NaCl 0.9%. The healthy control group (CT) only received 0.9% NaCl. N=5/18/9/9/6/5/4/4 in two experiments. The following peptides were tested on CCl4-treated mice: cyclic Gly-Leu-Gln-Gly-Glu (Cyclic GLQGE; SEQ ID NO: 5), and compared to two controls: cyclic Gly-Leu-Asn-Gly-Glu (Cyclic CT1: cyclic GLNGE; SEQ ID NO: 10) and cyclic Gly-Leu-Hyp-Gly-Glu (Cyclic CT2: cyclic GLOGE; SEQ ID NO: 15). Linear Ac-Gly-Leu-Gln-Gly-Glu (Linear Ac-GLQGE; SEQ ID NO: 3) was also tested and compared to two controls: linear Ac-Gly-Leu-Asn-Gly-Glu (Linear Ac-CT1: linear Ac-GLNGE; SEQ ID NO: 8) and linear Ac-Gly-Leu-Hyp-Gly-Glu (Linear Ac-CT2: linear Ac-GLOGE; SEQ ID NO: 13). * p<0.05, ** p<0.005. Evaluated by t-test. Data presented as mean+SEM.
Mice were injected for 6 weeks with CCl4 in order to induce liver fibrosis. Starting on day 32 the mice received daily intraperitoneal injections of the peptides at a final dose of 25 mg/kg/mouse/day diluted in NaCl 0.9% for a total of 10 days. In these experiments, the following peptides were tested: cyclic peptide Pro-Gly-Leu-Gln-Gly-Glu (SEQ ID NO: 6), cyclic peptide Pro-Gly-Leu-Asn-Gly-Glu (SEQ ID NO: 11), cyclic peptide Pro-Gly-Leu-Hyp-Gly-Glu (SEQ ID NO: 16), linear peptide Gly-Leu-Gln-Gly-Glu-NH2 (SEQ ID NO: 4), linear peptide Gly-Leu-Asn-Gly-Glu-NH2 (SEQ ID NO: 9), linear peptide Gly-Leu-Hyp-Gly-Glu-NH2 (SEQ ID NO: 14).
Mice were injected for 6 weeks with CCl4 in order to induce liver fibrosis. Starting on day 32 the mice received daily intraperitoneal injections of the peptides at a final dose of 25 mg/kg/mouse/day diluted in NaCl 0.9% for a total of 10 days. In these experiments, the following peptides were tested: cyclic peptide Gly-Leu-Gln-Gly-Glu (SEQ ID NO: 5), cyclic peptide Gly-Leu-Asn-Gly-Glu (SEQ ID NO: 10), cyclic peptide Gly-Leu-Hyp-Gly-Glu (SEQ ID NO: 15), linear peptide Ac-Gly-Leu-Gln-Gly-Glu (SEQ ID NO: 3), linear peptide Ac-Gly-Leu-Asn-Gly-Glu (SEQ ID NO: 8), linear peptide Ac-Gly-Leu-Hyp-Gly-Glu (SEQ ID NO: 13).

[2] = system: B16 melanoma cancer cells; experiment: B16 melanoma model in mice (tumor weight); format: in vivo; settings: B16 melanoma cells (10^6) s.c. in mice; 1 mg peptide s.c. on day 7; tumours weighed on day 12
Method: FIG. 3 Prevention of cancer growth by cyclic GLQGE (SEQ ID NO: 5) in form of hydrochloride salt (cyclic GLQGE HCl salt). B16 melanoma cancer cells were injected subcutaneously in mice. On day 7, injection with 1 mg of the peptide or 0.9% NaCl subcutaneously was performed. On day 12 mice were euthanized and tumors removed and weighed. N=11/11 mice. Data presented as mean+SEM.
The cyclic peptide Gly-Leu-Gln-Gly-Glu (cyclic GLQGE; SEQ ID NO: 5) in form of hydrochloride salt was tested for its ability in prevention of cancer growth in a melanoma model in mice. B16 melanoma cancer cells (10^6 cells) were injected subcutaneously in mice. On day 7, injection with 1 mg of the cyclic GLQGE peptide (SEQ ID NO: 5) or 0.9% NaCl (control mice) subcutaneously was performed. On day 12 mice were euthanized and tumours removed and weighed. N=11/11 mice. Results are shown on FIG. 3 as mean+SEM. […] Thus, the cyclic peptide Gly-Leu-Gin-Gly-Glu (SEQ ID NO: 5) represents a promising therapeutic drug for use in the treatment of cancer.

[3] = system: breast cancer cell line MDA-MB-231; experiment: breast cancer model in mice, MDA-MB-231 intratibial (bioluminescence imaging); format: in vivo; settings: MDA-MB-231 intratibially in CD1 nude mice; 0.1 mg s.c. daily from day 30 for 10 days; read on day 40; vs 0.9% NaCl
Method: FIG. 5 Prevention of breast cancer growth by cyclic GLQGE (SEQ ID NO: 5) in form of hydrochloride salt (cyclic GLQGE HCl salt). Cells from the breast cancer cell line MDA-MB-231 were injected intratibially in mice. Starting on day 30, injection with 0.1 mg/mouse/day of the cyclic peptide Gly-Leu-Gln-Gly-Glu (SEQ ID NO: 5) (cyclic GLQGE HCl salt) for 10 days or 0.9% NaCl subcutaneously was performed. On day 40, the size of the tumour was evaluated by bioluminescence imaging (Bioluminescence imaging was performed by detecting photon signal 5 minutes after D-luciferin injection (150 mg/kg) using an “IVIS Lumina II” imaging system. The resulting images were analysed using the software “Living Image”). RLU=relative light units. The number of animals in each group was N=14/7 mice, in two experiments. * p<0.05 as evaluated by t-test. Data are presented as mean+SEM.
The hydrochloride salt of cyclic peptide Gly-Leu-Gln-Gly-Glu (cyclic GLQGE; SEQ ID NO: 5) was tested for its ability in prevention of breast cancer in mice. […] On day 40, the size of the tumor was evaluated by bioluminescence imaging (Bioluminescence imaging was performed by detecting photon signal 5 minutes after D-luciferin injection (150 mg/kg) using an “IVIS Lumina II” imaging system. The resulting images were analyzed using the software “Living Image”). […]

[4] = system: bleomycin induced lung fibrosis in C57bl/6 mice; experiment: bleomycin induced lung fibrosis in mice (total collagen in the lung); format: in vivo; settings: intratracheal bleomycin on day 0; 1 mg/mouse/day s.c. from day 11 for 10 days; vs bleomycin alone (p<0.05) or with control peptides
Method: FIG. 4 Prevention of fibrosis progression by the cyclic peptide Gly-Leu-Gln-Gly-Glu (SEQ ID NO: 5) (acetate salt). Lung fibrosis was induced in 6-week-old male C57bl/6 mice using intratracheal bleomycin instillation at a dose of 0.005 units in 50 μl on day 0. Starting on day 11, cyclic Gly-Leu-Gln-Gly-Glu (cyclic GLQGE; SEQ ID NO: 5) was injected subcutaneously at a dose of 1 mg/mouse/day in 0.9% NaCl for a total of 10 days. The control group only received daily injections of 0.9% NaCl. The number of animals in the four groups was N=14/10/10/9 in three experiments. The cyclic peptide Gly-Leu-Gln-Gly-Glu (Cyclic GLQGE; SEQ ID NO: 5) (acetate salt) was tested and compared to cyclic Ac-Gly-Leu-Asn-Gly-Glu (Cyclic GLNGE; SEQ ID NO: 10) (acetate salt) and to cyclic Ac-Gly-Leu-Hyp-Gly-Glu (Cyclic GLOGE; SEQ ID NO: 15) (acetate salt), *p<0.05. Evaluated by t-test. Data are presented as mean ±SEM.
The cyclic peptide Gly-Leu-Gln-Gly-Glu (cyclic GLQGE (SEQ ID NO: 5) acetate salt) was tested for its ability in prevention of lung fibrosis in mice. Lung fibrosis was induced in 6-week-old male C57bl/6 mice using intratracheal bleomycin instillation at a dose of 0.005 units in 50 μl 0.9% NaCl on day 0. […]

[5] = system: TGFβ expression in murine hepatocytes; experiment: unstimulated TGFβ expression in murine hepatocytes; format: cell-based; settings: data not shown

With “Ac-GLQGE [SEQ ID NO: 3, Ac-Gly-Leu-Gln-Gly-Glu]” the “collagen accumulation in the liver (marker of matrix accumulation)” value (shortened to “collagen accumulation in the liver”) [1] was “able to significantly reduce CCl4-induced collagen accumulation”.

In the case of `CC(C)C[C@@H]1NC(=O)CNC(=O)[C@H](CCC(=O)O)NC(=O)CNC(=O)[C@H](CCC(N)=O)NC1=O` [SEQ ID NO: 5 (HCl salt), Gly-Leu-Gln-Gly-Glu] (HELM PEPTIDE1{E.G.L.Q.G}$PEPTIDE1,PEPTIDE1,1:R1-5:R2$$$V2.0), the “diminution of cancer size (tumor weight) as compared to control mice” value [2] is reported as “approximately 72%” and the “size of the tumor by bioluminescence imaging” value [3] is reported as “significantly (p<0.05) diminished”.

In the case of `CC(C)C[C@@H]1NC(=O)CNC(=O)[C@H](CCC(=O)O)NC(=O)CNC(=O)[C@H](CCC(N)=O)NC1=O` [SEQ ID NO: 5 (acetate salt), Gly-Leu-Gln-Gly-Glu] (HELM PEPTIDE1{E.G.L.Q.G}$PEPTIDE1,PEPTIDE1,1:R1-5:R2$$$V2.0), the “total amount of collagen in the lung” value [4] is reported as “significantly diminished”.

“GLNGE-NH2 [SEQ ID NO: 9, Gly-Leu-Asn-Gly-Glu-NH2]” was tested, and the “unstimulated TGFβ expression” value [5] was “had no effect”.

`CC(C)C[C@@H]1NC(=O)CNC(=O)[C@H](CCC(=O)O)NC(=O)CNC(=O)[C@H](CC(N)=O)NC1=O` [SEQ ID NO: 10, Gly-Leu-Asn-Gly-Glu, reference compound] (HELM PEPTIDE1{E.G.L.N.G}$PEPTIDE1,PEPTIDE1,1:R1-5:R2$$$V2.0) was tested, and the “collagen accumulation in the liver” value [1] was “failed to inhibit collagen accumulation”.

In the case of `CC(C)C[C@H](NC(=O)CN)C(=O)N1C[C@@H](O)C[C@H]1C(=O)NCC(=O)N[C@@H](CCC(=O)O)C(N)=O` [SEQ ID NO: 14, Gly-Leu-Hyp-Gly-Glu-NH2], the “unstimulated TGFβ expression” value [5] is reported as “had no effect”.

With `CC(C)C[C@@H]1NC(=O)CNC(=O)[C@H](CCC(=O)O)NC(=O)CNC(=O)[C@@H]2C[C@@H](O)CN2C1=O` [SEQ ID NO: 15, Gly-Leu-Hyp-Gly-Glu, reference compound] (HELM PEPTIDE1{E.G.L.[Hyp].G}$PEPTIDE1,PEPTIDE1,1:R1-5:R2$$$V2.0) the “collagen accumulation in the liver” value [1] was “failed to inhibit collagen accumulation”.

PGLQGE [SEQ ID NO: 6] was tested, and the “collagen accumulation in the liver” value [1] was “able to significantly reduce collagen accumulation”.

With “Gly-Leu-Gln-Gly-Glu (GLQGE; SITE 1..5 peptide bond between the amino-terminus and the carboxyl-terminus; listed as Homo sapiens) [SEQ ID NO: 5]” the “efficiency in reducing collagen accumulation in comparison to the cyclic peptide with proline Pro-Gly-Leu-Gln-Gly-Glu (SEQ ID NO: 6)” value ([1]; CCl4 liver fibrosis in mice, comparison of Y-axis values of FIGS. 1 and 2, p<0.001) was “more efficient in reducing collagen accumulation”, the “inhibitory effect on collagen accumulation compared to linear Gly-Leu-Gln-Gly-Glu-NH2 (SEQ ID NO: 4) or Ac-Gly-Leu-Gln-Gly-Glu (SEQ ID NO: 3)” value ([1]; chemically induced chronic liver damage in mice) was “larger inhibitory effect” and the “collagen accumulation in the liver” value [1] was “able to significantly reduce collagen accumulation”.

For “GLQGE-NH2 [SEQ ID NO: 4, Gly-Leu-Gln-Gly-Glu-NH2]”, the “collagen accumulation in the liver” value [1] was “able to significantly reduce CCl4-induced collagen accumulation” and the “unstimulated TGFβ expression” value [5] was “efficiently inhibits”.
